Assay [1] in a line: Inhibition of TGFbeta-dependent SMAD2/3 phosphorylation in mouse NIH3T3 cells incubated for 24 hrs by luciferase reporter assay. The conditions noted are these: NIH3T3, 24 h. (In a reporter assay the amount or activity of a reporter protein is the signal.)
Assay [2] addresses Mothers against decapentaplegic homolog 2 (Homo sapiens) (UniProt Q15796). Nature of the assay: Inhibition of TGFbeta-induced SMAD2 phosphorylation at S465/467 residues in serum-starved human Hep3B cells preincubated with compound for 30 mins followed by TGFbeta addition and measured after 30 mins by Western blotting analysis. In kind it is cell-based. Conditions: dose 1-10 µM, time 60.0 min. In general terms: In western blotting, separated proteins are transferred to a membrane and probed.

Assay [3] has as its system Hep 3B2. Nature of the assay: Induction of apoptosis in human Hep3B cells at 10 uM incubated for 48 to 72 hrs in presence of sorafenib by Annexin V-FITC/PI staining based flow cytometry. It is filed as functional, cell-based. Conditions: time 48-72 hrs. (A flow cytometer gives signals particle by particle.)
For assay [4], the system named is Hep 3B2. Nature of the assay: Induction of apoptosis in human Hep3B cells at 10 uM incubated for 48 hrs by Annexin V-FITC/PI staining based flow cytometry. In kind it is functional, cell-based.
The subject of assay [5] is Hep 3B2. In words: Growth inhibition of human Hep3B cells incubated for 72 hrs by CCK-8 assay. In kind it is functional.
For assay [6], the system named is Hep 3B2. In words: Synergistic antiproliferative activity against human Hep3B cells at 1.56 to 3.12 uM in presence of sorafenib. It is filed as functional, cell-based. Conditions: dose 1.56-3.12 µM.
The subject of assay [7] is Hep 3B2. Nature of the assay: Induction of apoptosis in human Hep3B cells at 5 uM incubated for 72 hrs by Annexin V-FITC/PI staining based flow cytometry. It is filed as functional, cell-based.

pEC50: −log10 of the molar value. Activity calls are given as the source filed them. The rule behind the calls is not given here.

Mothers against decapentaplegic homolog 2 (Homo sapiens), sequence (Q15796 whole entry): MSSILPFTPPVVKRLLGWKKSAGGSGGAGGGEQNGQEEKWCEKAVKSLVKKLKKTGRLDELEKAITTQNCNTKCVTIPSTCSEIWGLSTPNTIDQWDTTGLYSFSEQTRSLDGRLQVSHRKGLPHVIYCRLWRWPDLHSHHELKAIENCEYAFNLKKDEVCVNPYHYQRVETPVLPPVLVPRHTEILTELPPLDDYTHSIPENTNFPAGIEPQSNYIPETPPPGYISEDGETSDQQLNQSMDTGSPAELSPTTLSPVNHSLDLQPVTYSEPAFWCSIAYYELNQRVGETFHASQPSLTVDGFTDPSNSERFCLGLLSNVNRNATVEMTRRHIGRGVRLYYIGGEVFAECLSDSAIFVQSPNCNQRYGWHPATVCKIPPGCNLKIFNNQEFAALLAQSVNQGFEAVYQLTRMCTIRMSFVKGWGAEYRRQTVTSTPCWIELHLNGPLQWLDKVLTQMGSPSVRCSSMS

As for `Cc1nc(NS(=O)(=O)c2c[nH]c3ncccc23)ccc1Cl`, the pEC50 (commonly −log10 of the EC50, conventionally taken in molar units) in assay [1] was 6.80. The inhibition entry in assay [2] was “Dose-dependent-effect”. Moreover, the result in assay [3] and in assay [4] was Active. Moreover, the GI50 – broadly, the concentration giving 50% growth inhibition – in assay [5] worked out at 2.28 µM. For the same compound, the Activity entry in assay [6] was “Active; Compound Showed Moderate Activity”.
On to `O=S(=O)(Nc1ccc(Cl)cn1)c1c[nH]c2ncccc12`, for which the pEC50 in assay [1] is 6.67. For the same compound, growth in assay [5] was halved (GI50) at 2.86 µM.
With `CNC(=O)c1cc(Oc2ccc(NC(=O)Nc3ccc(Cl)c(C(F)(F)F)c3)cc2)ccn1`, in assay [7], the outcome was Active.
In turn, `COc1ccc(NS(=O)(=O)c2c[nH]c3ncccc23)cc1` had a pEC50 in assay [1] of 6.27. Halving of growth in assay [5] (GI50) required 5.71 µM.
With `Cc1cccc(-c2nn3c(c2-c2ccnc4ccc(C(N)=O)cc24)CCC3)n1` [GALUNISERTIB], in assay [1], the pEC50 is 7.32. Also, the inhibition result in assay [2] is “Dose-dependent-effect”. This compound also returned a GI50 in assay [5] of 1.07 µM.
